{
  "source": "patent US6207677A",
  "about": "“Piperidine derivatives having anxiolytic effect” (H. Lundbeck A/S, priority 1991, dated 2001)",
  "data": [
    {"molecular_target": "sigma receptors", "assay": "Inhibition of 3H-DTG binding to sigma receptors in rat brain in vitro", "details": "2 nM 3H-DTG, rat brain without cerebellum, 25° C., 20 min", "method": "INHIBITION OF 3H-DTG BINDING TO SIGMA RECEPTORS IN RAT BRAIN IN VITRO\nBy this method the inhibition by drugs of the binding of 2 nM ^3 H-DTG (1,3,di-o-tolyl guanidine) to sigma receptors in homogenates or membranes from rat brain without cerebellum is determined in vitro as modified from Weber et al. Proc. Natl. Acad. Sci. 1986, 83,8784.\nHomogenate: Rats (150-250 g) are decapitated and the brains (without cerebellum) quickly removed and placed on ice, weighed and homogenized in 100 vol ice-cold (0° C.) 50 mM Tris-buffer (pH 7.7) in an ethanol rinsed glass/teflon homogenizer at 0° C. and kept on ice until use.\nP2-membranes: Brains are homogenized in 10 vol 0.32 M sucrose in an ethanol rinsed glass/teflon homogenizer with 10 strokes up and down. The homogenate is centrifuged for 10 min at 900×gm at 4° C. The supernatant is decanted and centrifuged for 20 min at 50,000 gm at 4° C. The resulting pellet is resuspended in 10 vol ice-cold […] Tris-buffer (pH 7.7) and incubated for 30 min. at 37° C. The membrane suspension is then centrifuged for further 20 min. at 50,000 gm at 4° C. The pellet is resuspended in 50 vol. of ice-cold Tris-buffer and used immediately.\n0.5 ml 50 mM Tris-buffer (pH 7.7), 0.25 ml displacer (6×100 μM DTG, 6× [test compound], or Tris-buffer), and 0.25 ml 6×2 nM. ^3 H-DTG are mixed into 5 ml s plastic test tubes and kept at 4° C. until use. The binding reaction is initiated by mixing 0.5 ml tissue suspension into this solution and incubate at 25° C. for 20 min. Glass fiber filters (Whatman GF/B) are placed on the filter machine which is then closed tightly. Just before filtration vacuum is applied, and the filters washed with 0.1% PEI solution from a spray bottle followed by one wash with Tris-buffer.\nThe binding reaction is stopped by filtration of the assay mixture at reduced pressure (750 mbar) followed by further 3 washes with 5 ml ice-cold Tris-buffer. The filters are then placed in counting vials and 4 ml scintillation solution added. The vials are counted in a Beckmann scintillation counter.\n50 mM Tris-buffer pH 7.7: 7.38 g Trizma--7.7 plus distilled H2 O ad 1 liter. 100 ml 10% polyethylenimine (PEI): 100 ml dest. H2 O is added to approx. 20 g 50% PEI which is solubilized by stirring and heating. Diluted (1+99) before use. 6×2 nM ^3 H-DTG: The exact volume depends on the actual concentration of the batch, but is made as close as possible to 12 nM. The containers for the radioactive solution is rinsed in 96% ethanol before use.\n^3 H-DTG was obtained from NEN Research Products, Du Pont Denmark. Specific activity 62.3 Ci/mmol.\nThe known sigma receptor ligands BMY 14802 and rimcazole were included in the test for comparison purposes.", "units": {"IC50": "nM"}, "values": [
      {"molecule": "c1ccc(CCCN2CCC3(CC2)OCc2ccccc23)cc1", "note": "[Compound 4d, 1'-(3-Phenyl-1-propyl)-spiro[isobenzofuran-1(3H),4'-piperidine]]", "IC50": 1.1},
      {"molecule": "c1ccc(CCCCCN2CCC3(CC2)OCc2ccccc23)cc1", "note": "[Compound 4e, 1'-(5-Phenyl-1-pentyl)-spiro[isobenzofuran-1 (3h),4'-piperidine]]", "IC50": 0.2},
      {"molecule": "CCCCCCCCCCCCCCCCCCN1CCC2(CC1)OCc1ccccc12", "note": "[Compound 4g, 1'-Octadecanyl-spiro[isobenzofuran-1(3H),4'-piperidine]]", "IC50": 46},
      {"molecule": "Fc1ccc(-n2cc(CCCCN3CCC4(CC3)Cc3ccccc3CO4)c3ccccc32)cc1", "note": "[Compound 5b, 1,4-Dihydro-1'-[4-[1-(4-Fluorophenyl)-3-indolyl]-1-butyl]spiro[3H-2-benzopyran-3,4'-piperidine]]", "IC50": 1.1},
      {"molecule": "c1ccc2c(c1)COC21CCN(CCCCc2cn(-c3ccsc3)c3ccccc23)CC1", "note": "[Compound 5c, 1'-(4-(1-(3-Thienyl)-3-indolyl]-1-butyl]spiro[isobenzofuran-1(3H),4'-piperidine]]", "IC50": 0.25},
      {"molecule": "c1csc(-n2cc(CCCCN3CCC4(CC3)OCc3ccccc34)c3ccccc32)c1", "note": "[Compound 5d, 1'-[4-[1-(2-Thienyl)-3-indolyl]-1-butyl]spiro[isobenzofuran-1(3H),4'-piperidine]]", "IC50": 0.24},
      {"molecule": "c1ccc2c(c1)COC21CCN(CCCCc2cn(-c3ccoc3)c3ccccc23)CC1", "note": "[Compound 5e, 1'-[4-[1-(3-Furanyl)-3-indolyl]-1-butyl]spiro[isobenzofuran-1(3H),4'-piperidine]]", "IC50": 4.7},
      {"molecule": "Fc1ccc(-n2cc(CCCCN3CCC(c4ccccc4)CC3)c3ccccc32)cc1", "note": "[Compound 5f, 1-(4-Fluorophenyl)-3-[4-(4-phenyl-1-piperidyl)-1-butyl]indole]", "IC50": 0.04},
      {"molecule": "c1ccc2c(c1)COC21CCN(CCCCc2cn(-c3ccncc3)c3ccccc23)CC1", "note": "[Compound 5g, 1'-[4-[1-(4-Pyridyl)-3-indolyl]-1-butyl]spiro[isobenzofuran-1(3H),4'-piperidine]]", "IC50": 4},
      {"molecule": "CS(=O)(=O)n1cc(CCCCN2CCC3(CC2)OCc2ccccc23)c2ccccc21", "note": "[Compound 6a, 1'-(4-(1-Methanesulfonyl-3-indolyl)-1-butyl)spiro[isobenzofuran-1(3 H),4'-piperidine]]", "IC50": 0.05},
      {"molecule": "Cc1ccc(S(=O)(=O)n2cc(CCCCN3CCC4(CC3)OCc3ccccc34)c3ccccc32)cc1", "note": "[Compound 6b, 1'-(4-(1-p-Toluenesulfonyl-3-indolyl)-1-butyl)spiro[isobenzofuran-1(3H),4'-piperidine]]", "IC50": 0.17},
      {"molecule": "O=S(=O)(c1cccs1)n1cc(CCCCN2CCC3(CC2)OCc2ccc(F)cc23)c2ccccc21", "note": "[Compound 6c, 6-Fluoro-1'-(4-(1-(2-thienyl)sulfonyl-3-indolyl)-1-butyl)spiro[isobenzofuran-1(3H),4'-piperidine)]", "IC50": "< 0.1"},
      {"molecule": "CC(=O)n1cc(CCCCN2CCC3(CC2)OCc2ccccc23)c2ccccc21", "note": "[Compound 7, 1'-(4-(1-Acetyl-3-indolyl)-1-butyl)spiro[isobenzofuran-1 (3H),4'-piperidine]]", "IC50": 0.21},
      {"molecule": "Fc1ccc(-n2cc(OCCCN3CCC4(CC3)OCc3ccccc34)c3ccccc32)cc1", "note": "[Compound 8a, 1'-[3-[1-(4-Fluorophenyl)-3-indolyloxy]-1-propyl]spiro[isobenzofuran-1(3H),4'-piperidine]]", "IC50": 0.21},
      {"molecule": "Fc1ccc(-n2cc(OCCCN3CCC4(CC3)OCc3ccccc34)c3ccc(Cl)cc32)cc1", "note": "[Compound 8b, 1'-[3-[6-Chloro-1-(4-fluorophenyl)-3-indolytoxy)-1-propyl]spiro[isobenzofuran-1(3M),4'-piperidine]]", "IC50": 1.7},
      {"molecule": "Fc1ccc(-n2cc(OCCCN3CCC4(CC3)OCc3ccccc34)c3cc(Cl)ccc32)cc1", "note": "[Compound 8c]", "IC50": 0.66},
      {"molecule": "Cc1ccc(C2CCN(CCCOc3cn(-c4ccc(F)cc4)c4ccc(Cl)cc34)CC2)cc1", "note": "[Compound 8d, 5-Chloro-1-(4-fluorophenyl)-3-[3-(4-(4-methylphenyl)-1-piperidinyl)-1-propyloxy]indol]", "IC50": 11}
    ]}
  ]
}
